Test system: mouse colorectal cancer cell CT26
Assay: Anti-tumor effect in tumor-bearing mice, transition of tumor volume
Format: in vivo, mice (BALB/c)
Settings: i.v. injection, α-mangostin 10 mg/kg, nanoparticles of average particle size 20 nm, FIG. 9
Protocol: The anti-tumor effect of the particles of the present invention containing α-mangostin was examined using mice (BALB/c, 7 weeks old, male) that bore the mouse colorectal cancer cell CT26. It was confirmed that the size of the tumor that the mice bore reached 100 mm^3 (7 days after), and a sample was intravenously administered (i. v. injection). The doses of α-mangostin at this time were standardized to 10 mg/kg. The transition of the tumor volume was observed after the administration.
Nanoparticles: average particle size: 20 nm (produced under the conditions of X (TX100): 0.15 mM and Y (ECH): 2.1 mL of Production Example 5) α-mangostin: Tokyo Chemical Industry Co., Ltd. Buffer solution: phosphate buffer (pH 7.5) nanoparticles containing no α-mangostin: only the nanoparticles (50 mg/mL) α-mangostin solution: α-mangostin solution (1.0 mM) containing 0.4 vol % DMSO, 2 vol % ethanol, and 2 vol TWEEN 80 (surfactant) nanoparticles containing α-mangostin: solution in which α-mangostin was contained in the nanoparticles (nanoparticle concentration: 50 mg/mL, α-mangostin concentration: 1.0 mM) Experimental data (animal experiment using mice)

COc1c(O)cc2oc3cc(O)c(CC=C(C)C)c(O)c3c(=O)c2c1CC=C(C)C [MGS, α-mangostin]
effect of suppressing the cancer growth (tumor volume): not observed

Source: US20220362401A1, “PARTICLES, METHOD FOR PRODUCING PARTICLES, DRUG, METHOD FOR PRODUCING DRUG, AND ANTI-CANCER AGENT” (THE UNIVERSITY OF KITAKYUSHU, priority 2019, published 2022)
